Where two headings read alike, the source gives them in different places.
Legend:
[1] = test system: p53 Y220C mutant; assay: HTRF assay: compounds promoting the binding of p53 Y220C mutant with DNA; type: biochemical; details: His-tagged p53 Y220C (94-312), biotin-labeled DNA
Method: Homogeneous time-resolved fluorescence (HTRF) assay was used to measure the reactivation effect of compounds on the p53 Y220C mutant. The recombinant His-tagged p53 Y220C (94-312) used for HTRF assays was expressed in E. coli and purified to the purity of 90% through Ni-NTA column. The biotin-labeled DNA used for HTRF assays was synthesized by Pharmaron Inc, with the specific sequence of 5'-[…]-3' .
The binding of recombinant His-tagged p53 Y220C protein and biotin-labeled DNA was measured using fluorescence resonance energy transfer (FRET). For FRET assays, binding between p53 mutants and DNA sequences was measured by detecting the fluorescence of the interaction between an anti-His antibody (Cisbio, 61HI2KLA) conjugated to Eu and d2-conjugated streptavidin (Cisbio, 610SADLF) bound to a biotin-labeled DNA molecule. Compounds were prepared into 2 mM stock solutions and serially diluted into 10 concentrations at a 1:3 ratio in DMSO. Each 200-fold working concentration compound was sequentially diluted to 4-fold working concentration. 4 µL of compound solution was transferred line by line to a 384-well assay plate using Echo, containing 2 replicates per column. 4 µL of p53 solution was added to the assay plate. 4 µL of biotin DNA solution was added to the assay plate, and then 4 µL of assay solution (His-Eu antibody and streptavidin-d2) was added to each well of the assay plate. The assay plate was incubated overnight and protected from light. Fluorescence was read on BMG (BMG LRBTECH).
The ratio of each well was calculated (ratio_665 nm/615 nm-ratio_background). The activity % was calculated as follows: C = (Ave_Ac−Ave_Ba)/(Ave_Dc_Ave_Bd) [formula] R data = (A−Ave_Ba−C*D)/(D−Ave_Bd)*(Ave_Dc−Ave_Bd) [formula] Activity % = R data/Ave_VC*100. [formula] • A: fluorescence intensity of the sample at 665 nm; • D: fluorescence intensity of the sample at 615 nm; • Ba: fluorescence intensity of the plate background at 665 nm; • Bd: fluorescence intensity of the plate background at 615 nm; • Dc: fluorescence intensity of HIS-Eu background at 615 nm; • Ac: fluorescence intensity of streptavidin-d2 background at 665 nm; • VC: DMSO treatment group.
SC150 was calculated using Graphpad 8.0 to fit the logarithm of activity% and compound concentration to a nonlinear regression (dose response-variable slope). Table 1: Activity of compounds promoting the binding of p53 Y220C mutant with DNA

[2] = test system: CYP3A4/5; details: human, microsomes, 10 min, 10 µM
Method: (§1) Experimental purpose: To test the inhibitory effect of compounds on CYP isoenzymes at a single concentration. • 2. Experimental instrument and reagents:
(§2) 8.71 g of K2HPO4 was dissolved in 950 mL of water. The pH was adjusted to 7.4 with HCl solution. The mixture was adjusted to a final volume of 1000 mL with water. The buffer was filtered through a 0.45 µm filter. The buffer was stored in a refrigerator at 4°C for future use. Terfenadine/tolbutamide (1 mg/mL each) stock solutions were prepared with DMSO. The above stock solution was diluted with acetonitrile to produce a quenching solution containing 5/10 ng/mL (terfenadine/tolbutamide).
(§3) Liver microsomes were thawed in a 37°C water bath prior to use. Liver microsome working solution (final concentration of 0.5 mg/mL) was prepared. 5 mM NADPH working solution was prepared with phosphate buffered saline. The above stock solution was prepared into a 2 mM working solution with DMSO.
(§4) 238.5 µL of liver microsome working solution was added to a 1.1 mL tube. 1.5 µL of test compound/control working solution/DMSO was added and mixed well by pipetting several times. The mixture was pre-incubated in water bath with shaking at 37°C for 5 minutes. After the pre-incubation, 60 µL of NADPH working solution was added and mixed well by pipetting several times. The mixture was incubated in water bath with shaking at 37°C for 10 minutes. Immediately after incubation, 500 µL of quenching solution was added and vortexed for 1 minute. All samples were centrifuged at 4,000 rpm for 15 minutes at 4°C. 300 µL of the above supernatants were aliquoted for further LC-MS/MS analysis.
(§5) Inhibition rate (% inhibition) is calculated using metabolite formation of the test compound or the control compound compared to the matrix control.

[3] = test system: CYP3A4/5 enzymes; assay: Multi-concentration inhibitory activity curve of CYP3A4/5 enzymes, liver microsomes; type: in vitro ADME; details: substrate Midazolam; human liver microsomes; 10 min
Method: Experimental purpose: To determine the concentration inhibitory activity curve of compounds on CYP3A4/5 enzymes. • 2.
as §2
Liver microsomes were thawed in a 37°C water bath prior to use. Liver microsome working solution (final system concentration of 0.5 mg/mL) was prepared. 5 mM NADPH working solution was prepared with phosphate buffered saline. The above stock solution was prepared into a 2 mM working solution with DMSO. The above stock solution was diluted with acetonitrile (4-fold dilution, 6 non-zero concentrations).
238.5 µL of liver microsome working solution was added to a 1.1 mL tube. 1.5 µL of test compound/control working solution/DMSO was added and mixed well by pipetting several times. The mixture was pre-incubated in water bath with shaking at 37°C for 5 minutes. […]
The half-maximal inhibitory concentration (IC50) was calculated using Graph Pad Prism.

[4] = test system: CYP3A4/5; assay: Inhibition of CYP isoenzymes at a single concentration, liver microsomes; details: final compound concentration 10 µM; substrate Midazolam; human liver microsomes
Method: as §1, §2, §3, §4, §5

Row | Compound | SC150 [1] | further results
1 | COc1nc(C(=O)NS(C)(=O)=O)ccc1NCC#Cc1cc2c(N[C@@H]3CCN(C)C[C@@H]3F)cccn2c1CC(F)(F)F [Cpd-1, 5-((3-(8-(((3S,4R)-3-Fluoro-1-methylpiperidin-4-yl)amino)-3-(2,2,2-trifluoroethyl)indolizin-2-yl)prop-2-yn-1-yl)amino)-6-methoxy-N-(methylsulfonyl)picolinamide] | 1.0 nM | –
2 | COc1nc(C(=O)NS(C)(=O)=O)ncc1NCC#Cc1cc2c(N[C@@H]3CCN(C)C[C@@H]3F)cccn2c1CC(F)(F)F [Cpd-3, 5-((3-(8-(((3S,4R)-3-Fluoro-1-methylpiperidin-4-yl)amino)-3-(2,2,2-trifluoroethyl)indolizin-2-yl)prop-2-yn-1-yl)amino)-4-methoxy-N-(methylsulfonyl)pyrimidine-2-carboxamide] | 0.74 nM | –
3 | [2H]C([2H])([2H])Oc1nc(C(=O)NS(=O)(=O)C2CC2)ccc1NCC#Cc1cc2c(N[C@@H]3CCN(C)C[C@@H]3F)cccn2c1CC(F)(F)F [Cpd-4, N-(Cyclopropylsulfonyl)-5-((3-(8-(((3S,4R)-3-fluoro-1-methylpiperidin-4-yl)amino)-3-(2,2,2-trifluoroethyl)indolizin-2-yl)prop-2-yn-1-yl)amino)-6-(methoxy-d3)picolinamide] | 0.35 nM | –
4 | [2H]C([2H])([2H])Oc1nc(C(=O)NS(=O)(=O)CC2CC2)ccc1NCC#Cc1cc2c(N[C@@H]3CCN(C)C[C@@H]3F)cccn2c1CC(F)(F)F [Cpd-5, N-((Cyclopropylmethyl)sulfonyl)-5-((3-(8-(((3S,4R)-3-fluoro-1-methylpiperidin-4-yl)amino)-3-(2,2,2-trifluoroethyl)indolizin-2-yl)prop-2-yn-1-yl)amino)-6-(methoxy-d3)picolinamide] | 1.1 nM | –
5 | [2H]C([2H])([2H])Oc1nc(C(=O)NS(=O)(=O)CC(F)(F)F)ccc1NCC#Cc1cc2c(N[C@@H]3CCN(C)C[C@@H]3F)cccn2c1CC(F)(F)F [Cpd-6, 5-((3-(8-(((3S,4R)-3-Fluoro-1-methylpiperidin-4-yl)amino)-3-(2,2,2-trifluoroethyl)indolizin-2-yl)prop-2-yn-1-yl)amino)-6-(methoxy-d3)-N-((2,2,2-trifluoroethyl)sulfonyl)picolinamide] | 1.7 nM | –
6 | COc1nc(C(=O)NS(=O)(=O)C2CC2)ccc1NCC#Cc1cc2c(N[C@@H]3CCN(C)C[C@@H]3F)cccn2c1CC(F)(F)F [Cpd-7, N-(Cyclopropylsulfonyl)-5-((3-(8-(((3S,4R)-3-fluoro-1-methylpiperidin-4-yl)amino)-3-(2,2,2-trifluoroethyl)indolizin-2-yl)prop-2-yn-1-yl)amino)-6-methoxypicolinamide] | 0.64 nM | –
7 | COc1cc(S(C)(=O)=O)ccc1NCC#Cc1nc2c(N[C@@H]3CCN(C)C[C@@H]3F)cccn2c1CC(F)(F)F [Cpd-B] | 15 nM | Inhibition rate (%) CYP3A4/5 (Midazolam) [2]: 61%; Inhibition rate (%) CYP3A4/5 (Testosterone) [2]: 75%
8 | CNC(=O)c1ccc(NCC#Cc2cc3c(N[C@@H]4CCN(C)C[C@@H]4F)cccn3c2CC(F)(F)F)c(OC)c1 [Cpd-C, 4-((3-(8-(((3S,4R)-3-Fluoro-1-methylpiperidin-4-yl)amino)-3-(2,2,2-trifluoroethyl)indolizin-2-yl)prop-2-yn-1-yl)amino)-3-methoxy-N-methylbenzamide] | 4.6 nM | IC50 [3]: 3.8 µM; Inhibition rate (%) CYP3A4/5 (Midazolam) [4]: 79%
